Experimental data published in PMC9146163, “Novel Au Carbene Complexes as Promising Multi-Target Agents in Breast Cancer Treatment” (Pharmaceuticals, 2022).
Entries after “also recorded” stand apart in the source; their conditions may differ.

What was measured:
NF-κB in MCF-7 cells = assay: NF-κB immunofluorescence, MCF-7; type: cell-based, human; conditions: IC50 value, 24 h
Description: (§1) The MitoTracker Deep Red FM probe (MitoTracker Mitochondrion-Selective Probes, Invitrogen European Headquarters, Paisley, PA4 9RF, UK) was used for mitochondrial staining, as previously described. For immunofluorescence analysis, the cells were seeded and further processed, as reported by Iacopetta et al.. The primary antibodies used were: rabbit anti-β-Actin and vimentin (Santa Cruz Biotechnology, Dallas, TX, USA), mouse anti cytochrome c and NF-κB p65 (Abcam, Cambridge, UK), diluted 1:100 in bovine serum albumin (BSA) 2% overnight at 4 °C. The secondary antibodies were: Alexa Fluor® 488 conjugate goat-anti-rabbit and Alexa Fluor® 568 conjugate goat-anti-mouse (Thermo Fisher Scientific, MA, USA), diluted 1:500 and incubated for 2h at 37 °C. DAPI 0.2 μg/mL (Sigma Aldrich, Milan, Italy) was used for nuclei staining. […] All the images were acquired and processed using the LAS-X software.

[1] = target: T1, Labeled Rabbit Muscle Actin (Oryctolagus cuniculus, UniProt P68135); assay: In vitro actin polymerization assay; type: biochemical; conditions: 5 µM
T1 construct: purchased Abcam (Actin Polymerization/Depolymerization Assay Kit)
Description: The ability of the tested compounds to interfere with the actin polymerization and depolymerization reaction was measured using an Actin Polymerization/Depolymerization Assay Kit purchased from Abcam, following the manufacturer’s instructions. […] For the polymerization assay, reconstituted actin was mixed with supplemented Buffer G and samples in a white 96-well plate and then the polymerization reaction was induced with the addition of the Buffer P supplemented with 10 mM ATP. The solution was mixed and the data acquisition started. For the Actin Depolymerization Assay, supplemented Buffers P and G were mixed and incubated in a white 96-well plate at room temperature for one hour to polymerize the actin, protected from light. Then samples were added and the data acquisition started. Latrunculin A and Cytochalasin B were used as control molecules at a concentration of 5 μM. For both the assays, the assembly of actin filaments was determined by measuring the fluorescence (Ex/Em: 365/410 nm) in kinetic mode for 1 h at room temperature using a microplate reader.

MCF-7 cells = assay: MTT assay, MCF-7; type: cell-based, human; conditions: MTT, 72 h; mean ± SD; read-out: IC50 MCF-7
Description: (§2) The five employed cell lines were purchased from American Type Culture Collection (ATCC, Manassas, VA, USA) and maintained as already reported. MCF-7, MDA-MB-231, MCF-10A and Hek-293 were cultured, as indicated by Iacopetta et al.. SkBr3 cells were maintained in DMEM high glucose, supplemented with 10% FBS and 100 μg/mL penicillin/streptomycin.
(§3) MTT assays [Sigma Aldrich (St.Louis, MO, USA)] were used in order to determine the in vitro anticancer activities of all the target compounds, as already reported.The compounds were tested at different concentrations (0.1-1-10-20-40 µM) for 72 h. Results are represented as percent (%) of basal and the IC50 values were calculated using GraphPad Prism 9 (GraphPad Software, La Jolla, CA, USA).

[2] = target: T2, human topoisomerase I (hTopo I) (Homo sapiens, UniProt P11387); assay: hTopo I relaxation assay; type: biochemical; conditions: 1 μM; supercoiled pHOT1, agarose gel
T2 construct: purchased TopoGEN, Port Orange, FL, USA

MDA-MB-231 cells [3] = assay: MTT assay, MDA-MB-231; type: cell-based, human; conditions: MTT, 72 h; mean ± SD; read-out: IC50 MDA-MB-231
Description: as §2, §3

MCF-10A cells = assay: MTT assay, normal MCF-10A; type: cell-based, human; conditions: MTT; for IC50: 72 h, normal cells, mean ± SD, read-out: IC50 MCF-10A
Description: The five employed cell lines were purchased from American Type Culture Collection (ATCC, Manassas, VA, USA) and maintained as already reported. […] SkBr3 cells were maintained in DMEM high glucose, supplemented with 10% FBS and 100 μg/mL penicillin/streptomycin.
[…] Results are represented as percent (%) of basal and the IC50 values were calculated using GraphPad Prism 9 (GraphPad Software, La Jolla, CA, USA).

[4] = LogP determination (1-octanol/water, UV/vis); type: physicochemical; conditions: log[complex]oct/[complex]H2O, 55 μM, UV-Vis
Description: The logarithm of the partition coefficient (LogP) was evaluated by making a slight modification to the procedure reported in ref. [79]. Equal volumes of 1-octanol and water (distilled after milli-Q purification) were stirred for 20 h at room temperature. Then, they were separated to give 1-octanol-saturated water and water-saturated 1-octanol. Six (10, 20, 40, 50, 60 and 100 μM) standard concentrations of the compounds were prepared from the water-saturated 1-octanol. Analysis using UV/vis spectroscopy was used to obtain a calibration curve of absorbance vs. concentration. For each complex, a solution was prepared in the water-saturated 1-octanol (55 μM) and an equal volume of 1-octanol-saturated water was added. The solutions (biphasic) were mixed for 15 min and then centrifuged for 1h at 6500 rpm to allow separation.
Concentration in water-saturated 1-octanol was determined by UV-Vis spectroscopy. Reported LogP is defined as log[complex]oct/[complex]H2O.

[5] = system: cytochrome c in MCF-10A cells; assay: Mitochondria staining and cytochrome c detection, MCF-10A; type: cell-based, human; conditions: IC50 value, 24 h
Description: as §1
I: Figure S5. Mitochondria staining and cytochrome c detection in MCF-10A cells
Figure S5. Mitochondria staining and cytochrome c detection in MCF-10A cells. Figure S5.
Mitochondria staining and cytochrome c detection in MCF-10A cells. In th e CTRL cells as well as
Panels A, DAP I λex/em= 350/460 nm; Panels B, Alexa Fluor CF 488 λex/em=
490/515 nm; Panels C, MitoTracker Deep Red FM probe λex/em= 644/665 nm. Panels D: overlay
channels. Images were acquired at 40x magnification and representative fields are shown.

[6] = target: T3, human topoisomerase II (hTopo II) (Homo sapiens, UniProt P11388); assay: hTopo II decatenation assay; type: biochemical; conditions: 1 μM; kDNA, agarose gel
T3 construct: purchased TopoGEN, Port Orange, FL

[7] = system: cytochrome c in MDA-MB-231 cells; assay: Mitochondria staining and cytochrome c detection, MDA-MB-231; type: cell-based, human; conditions: IC50 value, 24 h
Description: as §1

[8] = system: β-actin in MDA-MB-231 cells; assay: Actin immunofluorescence, MDA-MB-231; type: cell-based, human; conditions: 24 h; compound 1 at its IC50 value, LA 0.1 µM
Description: as §1

[9] = system: NF-κB in MDA-MB-231 cells; assay: NF-κB immunofluorescence, MDA-MB-231; type: cell-based, human; conditions: IC50 value, 24 h
Description: as §1

MDA-MB-231 cells [10] = assay: TUNEL assay, MDA-MB-231; type: cell-based, human; conditions: IC50, 24 h
From the text: Images are representative of three independent experiments.

T3 sequence (P11388 whole entry): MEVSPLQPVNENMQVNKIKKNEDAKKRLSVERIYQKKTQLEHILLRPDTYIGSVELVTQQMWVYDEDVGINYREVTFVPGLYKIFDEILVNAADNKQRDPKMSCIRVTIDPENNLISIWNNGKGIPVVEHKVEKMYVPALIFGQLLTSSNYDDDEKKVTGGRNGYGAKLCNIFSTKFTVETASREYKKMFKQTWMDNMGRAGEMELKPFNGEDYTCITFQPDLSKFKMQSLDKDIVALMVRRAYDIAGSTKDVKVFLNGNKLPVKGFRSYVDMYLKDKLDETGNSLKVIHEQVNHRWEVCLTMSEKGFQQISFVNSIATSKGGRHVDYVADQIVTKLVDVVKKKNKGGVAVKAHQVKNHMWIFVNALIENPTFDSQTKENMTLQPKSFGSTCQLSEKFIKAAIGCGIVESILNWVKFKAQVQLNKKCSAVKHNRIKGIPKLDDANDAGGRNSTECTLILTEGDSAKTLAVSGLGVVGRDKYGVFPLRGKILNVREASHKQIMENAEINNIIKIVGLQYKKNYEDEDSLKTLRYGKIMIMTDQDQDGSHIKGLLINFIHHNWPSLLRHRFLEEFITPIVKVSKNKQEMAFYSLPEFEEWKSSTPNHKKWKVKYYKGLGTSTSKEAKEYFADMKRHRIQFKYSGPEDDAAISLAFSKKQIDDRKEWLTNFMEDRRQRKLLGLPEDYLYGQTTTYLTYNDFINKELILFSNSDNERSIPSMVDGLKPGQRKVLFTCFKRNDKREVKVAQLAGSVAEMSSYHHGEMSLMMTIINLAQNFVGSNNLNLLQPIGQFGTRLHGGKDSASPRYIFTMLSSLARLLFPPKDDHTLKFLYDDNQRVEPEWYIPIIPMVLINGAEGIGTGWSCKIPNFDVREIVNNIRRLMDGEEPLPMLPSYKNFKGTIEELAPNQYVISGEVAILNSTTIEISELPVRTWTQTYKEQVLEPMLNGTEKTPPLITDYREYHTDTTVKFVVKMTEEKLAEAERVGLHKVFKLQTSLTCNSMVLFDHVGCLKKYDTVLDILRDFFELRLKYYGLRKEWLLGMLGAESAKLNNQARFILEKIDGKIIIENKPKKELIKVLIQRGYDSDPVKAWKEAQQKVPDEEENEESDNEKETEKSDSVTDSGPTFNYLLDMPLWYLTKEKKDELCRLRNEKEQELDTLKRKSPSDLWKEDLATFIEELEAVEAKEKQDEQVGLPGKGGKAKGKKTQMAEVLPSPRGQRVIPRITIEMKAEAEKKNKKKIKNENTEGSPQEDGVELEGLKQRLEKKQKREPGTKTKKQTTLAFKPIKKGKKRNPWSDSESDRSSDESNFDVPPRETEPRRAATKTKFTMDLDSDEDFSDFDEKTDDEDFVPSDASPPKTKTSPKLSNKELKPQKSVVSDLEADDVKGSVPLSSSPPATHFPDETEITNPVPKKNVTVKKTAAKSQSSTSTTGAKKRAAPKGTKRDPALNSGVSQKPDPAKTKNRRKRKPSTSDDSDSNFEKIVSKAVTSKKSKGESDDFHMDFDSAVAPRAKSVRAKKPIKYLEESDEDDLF
T2 sequence (P11387 whole entry): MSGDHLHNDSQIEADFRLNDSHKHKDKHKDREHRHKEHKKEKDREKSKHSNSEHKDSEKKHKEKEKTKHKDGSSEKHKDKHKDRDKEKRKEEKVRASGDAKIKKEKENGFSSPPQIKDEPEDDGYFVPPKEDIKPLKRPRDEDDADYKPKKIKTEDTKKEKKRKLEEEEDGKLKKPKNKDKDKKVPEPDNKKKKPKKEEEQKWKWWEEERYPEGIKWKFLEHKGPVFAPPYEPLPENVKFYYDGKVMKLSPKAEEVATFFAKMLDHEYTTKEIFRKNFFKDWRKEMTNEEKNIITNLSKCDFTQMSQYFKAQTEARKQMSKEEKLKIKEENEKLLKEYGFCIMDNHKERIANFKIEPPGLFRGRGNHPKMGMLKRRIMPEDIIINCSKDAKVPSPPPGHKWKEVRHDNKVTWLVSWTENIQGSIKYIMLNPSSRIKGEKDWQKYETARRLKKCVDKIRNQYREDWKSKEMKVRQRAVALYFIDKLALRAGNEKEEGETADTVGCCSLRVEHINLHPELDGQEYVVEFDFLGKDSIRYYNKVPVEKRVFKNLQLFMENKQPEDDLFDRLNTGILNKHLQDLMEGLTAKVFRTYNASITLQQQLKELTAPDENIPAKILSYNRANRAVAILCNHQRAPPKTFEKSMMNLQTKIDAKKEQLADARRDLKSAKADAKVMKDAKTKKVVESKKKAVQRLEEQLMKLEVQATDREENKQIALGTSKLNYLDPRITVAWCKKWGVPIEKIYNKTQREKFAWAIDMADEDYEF

Structure (SMILES) | NF-κB translocation, MCF-7 (NF-κB in MCF-7 cells) | effect on actin polymerization (in words) [1] | IC50 (MCF-7 cells) [µM] | inhibition of hTopo I supercoil relaxing activity [2] | IC50 (MDA-MB-231 cells [3]) [µM] | IC50 (MCF-10A cells) [µM] | LogP [4] | cytochrome c localization, MCF-10A [5] | inhibition of hTopo II decatenation activity [6] | cytochrome c localization, MDA-MB-231 [7] | actin polymerization curve, final value ([1]; end of 1 h kinetic read, control about 37.000 RFU) [RFU] | actin organization in MDA-MB-231 cells [8] | NF-κB translocation, MDA-MB-231 [9] | cytotoxicity against the normal MCF-10A cells (in words) (MCF-10A cells; up to the concentration of 200 μM) | apoptosis (TUNEL), MDA-MB-231 (MDA-MB-231 cells [10])
CC(=O)[O-].Cn1c(Cl)c(Cl)n(CC(O)c2ccccc2)[c]1=[Au+]=[c]1n(C)c(Cl)c(Cl)n1CC(O)c1ccccc1 (centres unmarked) [Compound 6, Bis [4,5-dichloro-(N-methyl, N’(2-hydroxy-2-phenyl-ethyl)imidazole-2-ylidine]gold(I)] acetate] | reduced the translocation of NF-κB from the cytoplasm to the nucleus | inhibiting activity higher that CB but lesser than LA | 1.2 ± 0.3 | totally inhibit | 16.8 ± 1.2 | 24.4 ± 0.9 | 0.78 | within mitochondria | totally inhibited |  |  |  |  |  | 
Cn1ccn(CC([O-])c2ccccc2)[c]1=[Au+]=[c]1n(C)ccn1CC([O-])c1ccccc1.[Cl-].[Na+].[Na+] (centres unmarked) [Compound 1] |  | inhibiting activity higher that CB but lesser than LA | 29.9 ± 1.1 | totally inhibit | 15.8 ± 0.7 | > 200 | 0.079 | within mitochondria | totally inhibited | cytochrome c is localized within mitochondria | 17000 | altered actin bundles organization | reduced the translocation of NF-κB from the cytoplasm to the nucleus | complete lack of cytotoxicity; also recorded: completely lack of cytotoxicity | induced apoptosis
